Assays:
Experiment in all cases: Test of herbicidal activities (greenhouse pot method)
Type in all cases: in vivo
[1] = tested on: Amaranthus retroflexus; conditions: single dose 300 g ai./h, treated before/after germination, 15 days later, greenhouse pot; for inhibition at 300 g/ha: Amaranthus retroflexus, 360 h, read-out: Herbicidal activity Amaranthus retroflexus (inhibition level)
Description: (§1) Garden soil was collected from regions where no pesticide is used and mixed uniformly with mountain soil and organic humus soil at a volume ratio of 1:1:1.
(§2) Multiple flowerpots each having a diameter of 9.5 cm and a depth of 8 cm were filled with the soil mixture to 3/4 volume. After water was added to the soil and the soil was completely wet, seeds of three grass weeds and three broadleaf weeds were inserted into the flowerpots (10-15 seeds for each weed). After seeding, the seeds were covered with fine oil mixed with sand and having a thickness of 1-3 cm. After the soil absorbed enough water and became saturated, excess water at the bottom of the flowerpot was drained, and the seeds were placed in a greenhouse for growth.
(§3) The weeds were watered every day so as to keep relative humidity of the soil at approximately 80%, growing temperature of 15-30° C., and air humidity above 50%. As the grass weeds grew to a 2-leaf stage and the broadleaf weeds was in a leaf period, spraying operation […] was performed on the stems and leafs. Planting before germination was performed before spraying. Soil processing was performed before the seeds of the weeds emerged.
(§4) Six target weeds comprising three grass weeds: Echinochloa crusgalli, Digiatria sanguinalis, Setaria viridis, along with three broadleaf weeds: Brassica juncea, Amaranthus retroflexus, Chenopodium album were treated before/after germination using a so-called “greenhouse pot” method with a single dose. A treating dose was 300 g ai./h. The process was repeated three times, and a blank control was used.
(§5) A 3WPSHZ-500 type automatic spraying tower with a spraying area of 0.132 m^2, a spray volume of 10 mL, working pressure of 0.2 MPa, and a liquid volume of 40% of maximum was used. After treatment, the weeds were placed in a greenhouse at a temperature of 15-30° C. Reaction symptoms of the weeds were regularly observed, and 15 days later, five reaction levels were determined according to the following inhibition intervals: 90≦A≦100%; 80≦B<90%, 60≦C<80%; 50≦D<60%, E<50%.

[2] = tested on: Brassica juncea; conditions: single dose 300 g ai./h, treated before/after germination, 15 days later, greenhouse pot; for inhibition at 300 g/ha: Brassica juncea, 360 h, read-out: Herbicidal activity Brassica juncea (inhibition level)
Description: as §1, §2, §3, §4, §5

[3] = tested on: Chenopodium album; conditions: single dose 300 g ai./h, treated before/after germination, 15 days later, greenhouse pot; for inhibition at 300 g/ha: Chenopodium album, 360 h, read-out: Herbicidal activity Chenopodium album (inhibition level)
Description: as §1, §2, §3, §4, §5

[4] = tested on: Digiatria sanguinalis; conditions: single dose 300 g ai./h, treated before/after germination, 15 days later, greenhouse pot; for inhibition at 300 g/ha: 360 h, read-out: Herbicidal activity Digiatria sanguinalis (inhibition level)
Description: as §1, §2, §3, §4, §5

[5] = tested on: Echinochloa crusgalli; conditions: single dose 300 g ai./h, treated before/after germination, 15 days later, greenhouse pot; for inhibition at 300 g/ha: Echinochloa crus-galli, 360 h, read-out: Herbicidal activity Echinochloa crusgalli (inhibition level)
Description: as §1, §2, §3, §4, §5

[6] = tested on: Setaria viridis; conditions: single dose 300 g ai./h, treated before/after germination, 15 days later, greenhouse pot; for inhibition at 300 g/ha: Setaria viridis, 360 h, read-out: Herbicidal activity Setaria viridis (inhibition level)
Description: as §1, §2, §3, §4, §5

| Compound | Herbicidal activity Amaranthus retroflexus (inhibition level) [1] | Herbicidal activity Brassica juncea (inhibition level) [2] | Herbicidal activity Chenopodium album (inhibition level) [3] | Herbicidal activity Digiatria sanguinalis (inhibition level) [4] | Herbicidal activity Echinochloa crusgalli (inhibition level) [5] | Herbicidal activity Setaria viridis (inhibition level) [6] | inhibition at 300 g/ha [1] [%] | inhibition at 300 g/ha [2] [%] | inhibition at 300 g/ha [3] [%] | inhibition at 300 g/ha [4] [%] | inhibition at 300 g/ha [5] [%] | inhibition at 300 g/ha [6] [%] |
| --- | --- | --- | --- | --- | --- | --- | --- | --- | --- | --- | --- | --- |
| CCCCS(=O)(=O)c1nc2cc(-n3nc(C)n(C(F)F)c3=O)c(F)cc2s1 [Compound 63] | A (90 ≦ A ≦ 100%) | B (80 ≦ B < 90%) | A (90 ≦ A ≦ 100%) | A (90 ≦ A ≦ 100%) | B (80 ≦ B < 90%) | C (60 ≦ C < 80%) |  |  |  |  |  |  |
| CCCCCCS(=O)(=O)c1nc2cc(-n3nc(C)n(C(F)F)c3=O)c(F)cc2s1 [Compound 55] | C (60 ≦ C < 80%) | C (60 ≦ C < 80%) | A (90 ≦ A ≦ 100%) | B (80 ≦ B < 90%) | E (E < 50%) | B (80 ≦ B < 90%) |  |  |  |  |  |  |
| CCCS(=O)(=O)c1nc2cc(-n3nc(C)n(C)c3=O)c(F)cc2s1 [Compound 48, 1-(6-fluoro-2-(propylsulfonyl)benzo[d]thiazol-5-yl)-3,4-dimethyl-1H-1,2,4-triazol-5(4H)-one] |  |  |  |  |  |  | 80 to 90 | 80 to 90 | 50 to 60 | 80 to 90 | 80 to 90 | 60 to 80 |
| Cc1nn(-c2cc3nc(S(C)(=O)=O)sc3cc2F)c(=O)n1C(F)F [Compound 62] | C (60 ≦ C < 80%) | D (50 ≦ D < 60%) | D (50 ≦ D < 60%) | B (80 ≦ B < 90%) | A (90 ≦ A ≦ 100%) | A (90 ≦ A ≦ 100%) |  |  |  |  |  |  |
| CCCCSc1nc2cc(-n3nc(C)n(C(F)F)c3=O)c(Cl)cc2s1 [Compound 97] | B (80 ≦ B < 90%) | B (80 ≦ B < 90%) | B (80 ≦ B < 90%) | C (60 ≦ C < 80%) | B (80 ≦ B < 90%) | C (60 ≦ C < 80%) |  |  |  |  |  |  |
| Cc1ccc([N+](=O)[O-])c(CSc2nc3cc(-n4nc(C)n(C(F)F)c4=O)c(F)cc3s2)c1 [Compound 16] | C (60 ≦ C < 80%) | B (80 ≦ B < 90%) | C (60 ≦ C < 80%) | C (60 ≦ C < 80%) | C (60 ≦ C < 80%) | B (80 ≦ B < 90%) |  |  |  |  |  |  |
| COc1cccc(CSc2nc3cc(-n4nc(C)n(C(F)F)c4=O)c(F)cc3s2)c1 [Compound 17] | A (90 ≦ A ≦ 100%) | A (90 ≦ A ≦ 100%) | B (80 ≦ B < 90%) | E (E < 50%) | C (60 ≦ C < 80%) | B (80 ≦ B < 90%) |  |  |  |  |  |  |
| Cc1nn(-c2cc3nc(SCc4ccc(Cl)nc4)sc3cc2Cl)c(=O)n1C(F)F [Compound 1] | A (90 ≦ A ≦ 100%) | B (80 ≦ B < 90%) | C (60 ≦ C < 80%) | B (80 ≦ B < 90%) | B (80 ≦ B < 90%) | D (50 ≦ D < 60%) |  |  |  |  |  |  |
| Cc1ccc(C[S+]([O-])c2nc3cc(-n4nc(C)n(C(F)F)c4=O)c(F)cc3s2)cc1 (stereo not drawn) [Compound 105] | B (80 ≦ B < 90%) | B (80 ≦ B < 90%) | B (80 ≦ B < 90%) | C (60 ≦ C < 80%) | D (50 ≦ D < 60%) | B (80 ≦ B < 90%) |  |  |  |  |  |  |
| CCOC(=O)C[S+]([O-])c1nc2cc(-n3nc(C)n(C(F)F)c3=O)c(Br)cc2s1 (stereo not drawn) [Compound 111] | A (90 ≦ A ≦ 100%) | B (80 ≦ B < 90%) | E (E < 50%) | C (60 ≦ C < 80%) | A (90 ≦ A ≦ 100%) | C (60 ≦ C < 80%) |  |  |  |  |  |  |
| Cc1nn(-c2cc3nc(SCc4ccccc4Cl)sc3cc2Cl)c(=O)n1C(F)F [Compound 3] | B (80 ≦ B < 90%) | C (60 ≦ C < 80%) | E (E < 50%) | C (60 ≦ C < 80%) | E (E < 50%) | E (E < 50%) |  |  |  |  |  |  |
| Cc1nn(-c2cc3nc(SCc4ccc(F)cc4)sc3cc2Br)c(=O)n1C(F)F [Compound 27] | D (50 ≦ D < 60%) | A (90 ≦ A ≦ 100%) | C (60 ≦ C < 80%) | D (50 ≦ D < 60%) | B (80 ≦ B < 90%) | B (80 ≦ B < 90%) |  |  |  |  |  |  |
| Cc1nn(-c2cc3nc([S+]([O-])Cc4cccc(Cl)c4)sc3cc2F)c(=O)n1C (stereo not drawn) [Compound 103] | A (90 ≦ A ≦ 100%) | D (50 ≦ D < 60%) | A (90 ≦ A ≦ 100%) | B (80 ≦ B < 90%) | E (E < 50%) | B (80 ≦ B < 90%) |  |  |  |  |  |  |
| CCOC(=O)CSc1nc2cc(-n3nc(C)n(C(F)F)c3=O)c(Cl)cc2s1 [Compound 98] |  |  |  |  |  |  | 90 to 100 | 90 to 100 | 80 to 90 | 90 to 100 | 90 to 100 | 90 to 100 |
| Cc1nn(-c2cc3nc(SCc4cccc(Cl)c4)sc3cc2F)c(=O)n1C [Compound 32] | A (90 ≦ A ≦ 100%) | B (80 ≦ B < 90%) | A (90 ≦ A ≦ 100%) | A (90 ≦ A ≦ 100%) | B (80 ≦ B < 90%) | C (60 ≦ C < 80%) |  |  |  |  |  |  |
